Test results taken from patent publication US11622937B2, “Polyphenolic polymer to make water-insoluble molecules become water-soluble” (priority 2015, dated 2023).
Where a name gives a salt, the structure may show the parent alone.

Legend:
[1] = cited from earlier work
[2] = estimated; cited from earlier work
[3] = Solubility with Polyphenolic Polymer in water; details: molecule formulated with Polyphenolic Polymer
[4] = Comparative study of solubility profile in water (spectrophotometric absorption at 262); format: physicochemical; details: 200 ml DI water, filtered 0.45 micron

Solubility with Polyphenolic Polymer in water (more than 99%) [3] | solubility [4] | SMILES | Reported Solubility in water [1] | solubility in water [2]
Water Soluble | – | O=c1c(O)c(-c2ccc(O)cc2)oc2cc(O)cc(O)c12 [Kaempferol] | Insoluble | –
Water Soluble | – | CN(Cc1cnc2nc(N)nc(N)c2n1)c1ccc(C(=O)N[C@@H](CCC(=O)O)C(=O)O)cc1 [Methotrexate] | Insoluble | –
Water Soluble | – | Cc1nc2n(c(=O)c1CCN1CCC(c3noc4cc(F)ccc34)CC1)CCCC2O (stereo not drawn) [Paliperidone] | Insoluble | –
Water Soluble | – | CN1C(C(=O)Nc2ccccn2)=C(O)c2ccccc2S1(=O)=O [Piroxicam (pain), Piroxicam] | Insoluble | –
Water Soluble | – | CCc1nc(N)nc(N)c1-c1ccc(Cl)cc1 [Pyrimethamine] | Insoluble | –

More lines, now with the values behind:

SMILES | Solubility with Polyphenolic Polymer in water (more than 99%) [3] | solubility [4] | Reported Solubility in water [1] | solubility in water [2]
C=C(c1ccc(C(=O)O)cc1)c1cc2c(cc1C)C(C)(C)CCC2(C)C [Bexarotene, Free Acid (4), Bexarotene] | – | – | Insoluble | 10 to 50 µM
C#Cc1cccc(Nc2ncnc3cc(OCCOC)c(OCCOC)cc23)c1 [Erlotinib Monohydrochloride] | Water Soluble | – | Insoluble | –
CCC(=O)O[C@]1(C(=O)SCF)[C@H](C)C[C@H]2[C@@H]3C[C@H](F)C4=CC(=O)C=C[C@]4(C)[C@@]3(F)[C@@H](O)C[C@@]21C [Fluticasone Propionate] | Water Soluble | – | Insoluble | –
CC(C)Cc1ccc(C(C)C(=O)O)cc1 (stereo not drawn) [Ibuprofen] | – | less than 1% | Insoluble | –
CCC(C)n1ncn(-c2ccc(N3CCN(c4ccc(OCC5COC(Cn6cncn6)(c6ccc(Cl)cc6Cl)O5)cc4)CC3)cc2)c1=O (stereo not drawn) [Itraconazole] | Water Soluble | – | Insoluble | –
Nc1cccc2c1CN(C1CCC(=O)NC1=O)C2=O (stereo not drawn) [Lenalidomide] | Water Soluble | – | Insoluble | –
Nc1cccc2c1C(=O)N(C1CCC(=O)NC1=O)C2=O (stereo not drawn) [Pomalidomide] | Water Soluble | – | Insoluble | –
CC[C@H](C)C(=O)O[C@H]1C[C@H](O)C=C2C=C[C@H](C)[C@H](CC[C@@H](O)C[C@@H](O)CC(=O)O)[C@H]21 [Pravastatin Sodium] | Water Soluble | – | Insoluble | –
CO[C@H]1C[C@@H]2CC[C@@H](C)[C@@](O)(O2)C(=O)C(=O)N2CCCC[C@H]2C(=O)O[C@H]([C@H](C)C[C@@H]2CC[C@@H](O)[C@H](OC)C2)CC(=O)[C@H](C)/C=C(\C)[C@@H](O)[C@@H](OC)C(=O)[C@H](C)C[C@H](C)/C=C/C=C/C=C/1C [Rapamycin] | Water Soluble | – | Insoluble | –
CO[C@H]1/C=C/O[C@@]2(C)Oc3c(C)c(O)c4c(O)c(c(/C=N/N5CCN(C)CC5)c(O)c4c3C2=O)NC(=O)/C(C)=C\C=C\[C@H](C)[C@H](O)[C@@H](C)[C@@H](O)[C@@H](C)[C@H](OC(C)=O)[C@@H]1C [Rifampin] | Water Soluble | – | Insoluble | –
